Here are results for two compounds from patent US12559465B2, “Substituted benzotriazinone metabolites of a GPR139 agonist” (TAKEDA PHARMACEUTICAL COMPANY LIMITED, priority 2020, dated 2026).

Type in all cases: in vitro ADME
Experiment [1] deals with T1, BSEP (Canis lupus familiaris, UniProt B8K1W2).
T1 sequence (B8K1W2 1-1325): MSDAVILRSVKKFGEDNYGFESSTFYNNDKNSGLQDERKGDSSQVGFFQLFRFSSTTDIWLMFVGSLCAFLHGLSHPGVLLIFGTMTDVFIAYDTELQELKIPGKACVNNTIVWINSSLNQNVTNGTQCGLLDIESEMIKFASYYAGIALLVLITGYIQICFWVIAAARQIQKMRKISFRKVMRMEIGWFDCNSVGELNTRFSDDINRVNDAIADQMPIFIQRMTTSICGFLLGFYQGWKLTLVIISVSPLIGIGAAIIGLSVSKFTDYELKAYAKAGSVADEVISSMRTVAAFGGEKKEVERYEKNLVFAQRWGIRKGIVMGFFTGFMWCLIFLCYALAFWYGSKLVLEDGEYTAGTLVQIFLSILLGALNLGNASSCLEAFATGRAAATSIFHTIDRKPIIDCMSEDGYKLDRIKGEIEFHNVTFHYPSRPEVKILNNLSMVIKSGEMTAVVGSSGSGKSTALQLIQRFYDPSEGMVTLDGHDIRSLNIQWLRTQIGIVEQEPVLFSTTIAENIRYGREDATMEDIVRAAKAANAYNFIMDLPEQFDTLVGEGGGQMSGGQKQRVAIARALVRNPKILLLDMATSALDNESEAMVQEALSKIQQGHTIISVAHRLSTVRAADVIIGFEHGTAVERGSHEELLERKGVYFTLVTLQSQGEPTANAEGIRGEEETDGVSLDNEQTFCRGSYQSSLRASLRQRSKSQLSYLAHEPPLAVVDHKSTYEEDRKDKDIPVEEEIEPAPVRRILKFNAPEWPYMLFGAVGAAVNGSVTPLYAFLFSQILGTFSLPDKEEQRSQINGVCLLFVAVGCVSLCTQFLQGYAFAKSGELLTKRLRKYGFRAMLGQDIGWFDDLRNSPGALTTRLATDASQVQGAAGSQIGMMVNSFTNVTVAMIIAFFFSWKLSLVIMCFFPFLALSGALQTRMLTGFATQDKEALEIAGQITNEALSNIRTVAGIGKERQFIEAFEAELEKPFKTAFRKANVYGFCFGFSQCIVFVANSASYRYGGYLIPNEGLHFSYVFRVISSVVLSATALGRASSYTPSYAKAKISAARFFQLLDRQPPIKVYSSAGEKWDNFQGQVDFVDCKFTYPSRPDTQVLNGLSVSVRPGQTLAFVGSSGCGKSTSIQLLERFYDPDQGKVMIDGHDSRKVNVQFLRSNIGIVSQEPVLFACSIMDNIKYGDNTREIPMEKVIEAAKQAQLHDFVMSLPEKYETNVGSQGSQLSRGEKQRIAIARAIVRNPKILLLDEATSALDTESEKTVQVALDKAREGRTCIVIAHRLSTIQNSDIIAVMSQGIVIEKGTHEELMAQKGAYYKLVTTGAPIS
Briefly: BSEP inhibition in membrane vesicles (dog). The method, then: (§1) Inhibition of BSEP (dog and human) and MRP2 (dog and human) by Compound A and Compound B were tested in membrane vesicles.

Experiment [2] has as its target BSEP (Homo sapiens, UniProt O95342). Briefly: BSEP inhibition in membrane vesicles (human). The method, then: as §1
Experiment [3] has as its target MRP2 (Canis lupus familiaris, UniProt A0A8I3SCV5). Briefly: MRP2 inhibition in membrane vesicles (dog). The method, then:
as §1

Experiment [4] has as its target MRP2 (Homo sapiens, UniProt Q92887). Put plainly: MRP2 inhibition in membrane vesicles (human). As for the experimental part: as §1
Experiment [5] concerns the target T2, BSEP (Rattus norvegicus, UniProt O70127).
T2 sequence (O70127 1-1321): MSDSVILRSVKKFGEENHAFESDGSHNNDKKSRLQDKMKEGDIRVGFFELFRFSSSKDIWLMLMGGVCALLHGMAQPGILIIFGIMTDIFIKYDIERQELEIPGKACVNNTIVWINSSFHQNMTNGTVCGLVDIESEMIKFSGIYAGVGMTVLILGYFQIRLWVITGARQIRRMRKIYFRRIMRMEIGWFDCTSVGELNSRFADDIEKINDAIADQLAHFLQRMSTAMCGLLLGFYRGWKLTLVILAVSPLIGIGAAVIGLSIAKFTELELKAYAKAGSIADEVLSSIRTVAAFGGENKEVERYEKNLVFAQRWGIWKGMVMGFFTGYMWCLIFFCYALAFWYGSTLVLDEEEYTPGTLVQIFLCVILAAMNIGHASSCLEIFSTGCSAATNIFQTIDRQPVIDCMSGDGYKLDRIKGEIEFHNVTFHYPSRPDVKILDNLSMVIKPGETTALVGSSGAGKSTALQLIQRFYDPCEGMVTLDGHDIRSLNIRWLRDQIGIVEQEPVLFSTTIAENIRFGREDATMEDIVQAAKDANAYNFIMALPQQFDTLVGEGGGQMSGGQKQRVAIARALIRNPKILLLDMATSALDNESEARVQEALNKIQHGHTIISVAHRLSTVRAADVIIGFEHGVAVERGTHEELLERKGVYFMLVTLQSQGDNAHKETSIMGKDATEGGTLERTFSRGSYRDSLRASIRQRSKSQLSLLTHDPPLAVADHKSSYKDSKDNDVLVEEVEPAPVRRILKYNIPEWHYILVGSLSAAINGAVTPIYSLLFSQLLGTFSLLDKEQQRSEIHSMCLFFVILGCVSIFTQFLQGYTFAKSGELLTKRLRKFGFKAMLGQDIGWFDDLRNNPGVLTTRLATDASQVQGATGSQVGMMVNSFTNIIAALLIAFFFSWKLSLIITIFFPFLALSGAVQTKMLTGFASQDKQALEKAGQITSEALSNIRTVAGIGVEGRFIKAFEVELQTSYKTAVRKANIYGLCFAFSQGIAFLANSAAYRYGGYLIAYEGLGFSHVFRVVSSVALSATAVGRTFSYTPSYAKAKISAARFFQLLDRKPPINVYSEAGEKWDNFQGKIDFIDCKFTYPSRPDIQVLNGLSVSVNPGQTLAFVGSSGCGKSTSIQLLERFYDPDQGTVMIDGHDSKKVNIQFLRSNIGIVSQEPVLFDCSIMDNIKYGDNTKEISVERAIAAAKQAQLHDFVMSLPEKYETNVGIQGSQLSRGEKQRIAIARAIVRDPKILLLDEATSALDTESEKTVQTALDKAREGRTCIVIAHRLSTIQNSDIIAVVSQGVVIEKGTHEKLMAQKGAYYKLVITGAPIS
Put plainly: BSEP inhibition in membrane vesicles (rat).

Experiment [6] has as its target MRP2 (Rattus norvegicus, UniProt Q63120). Put plainly: MRP2 inhibition in membrane vesicles (rat).
For another experiment, the target named is MRP3 (Homo sapiens, UniProt O15438). Put plainly: MRP3 inhibition (human).
In the next experiment the target is T3, MRP4 (Homo sapiens, UniProt O15439).
T3 sequence (O15439 1-1325): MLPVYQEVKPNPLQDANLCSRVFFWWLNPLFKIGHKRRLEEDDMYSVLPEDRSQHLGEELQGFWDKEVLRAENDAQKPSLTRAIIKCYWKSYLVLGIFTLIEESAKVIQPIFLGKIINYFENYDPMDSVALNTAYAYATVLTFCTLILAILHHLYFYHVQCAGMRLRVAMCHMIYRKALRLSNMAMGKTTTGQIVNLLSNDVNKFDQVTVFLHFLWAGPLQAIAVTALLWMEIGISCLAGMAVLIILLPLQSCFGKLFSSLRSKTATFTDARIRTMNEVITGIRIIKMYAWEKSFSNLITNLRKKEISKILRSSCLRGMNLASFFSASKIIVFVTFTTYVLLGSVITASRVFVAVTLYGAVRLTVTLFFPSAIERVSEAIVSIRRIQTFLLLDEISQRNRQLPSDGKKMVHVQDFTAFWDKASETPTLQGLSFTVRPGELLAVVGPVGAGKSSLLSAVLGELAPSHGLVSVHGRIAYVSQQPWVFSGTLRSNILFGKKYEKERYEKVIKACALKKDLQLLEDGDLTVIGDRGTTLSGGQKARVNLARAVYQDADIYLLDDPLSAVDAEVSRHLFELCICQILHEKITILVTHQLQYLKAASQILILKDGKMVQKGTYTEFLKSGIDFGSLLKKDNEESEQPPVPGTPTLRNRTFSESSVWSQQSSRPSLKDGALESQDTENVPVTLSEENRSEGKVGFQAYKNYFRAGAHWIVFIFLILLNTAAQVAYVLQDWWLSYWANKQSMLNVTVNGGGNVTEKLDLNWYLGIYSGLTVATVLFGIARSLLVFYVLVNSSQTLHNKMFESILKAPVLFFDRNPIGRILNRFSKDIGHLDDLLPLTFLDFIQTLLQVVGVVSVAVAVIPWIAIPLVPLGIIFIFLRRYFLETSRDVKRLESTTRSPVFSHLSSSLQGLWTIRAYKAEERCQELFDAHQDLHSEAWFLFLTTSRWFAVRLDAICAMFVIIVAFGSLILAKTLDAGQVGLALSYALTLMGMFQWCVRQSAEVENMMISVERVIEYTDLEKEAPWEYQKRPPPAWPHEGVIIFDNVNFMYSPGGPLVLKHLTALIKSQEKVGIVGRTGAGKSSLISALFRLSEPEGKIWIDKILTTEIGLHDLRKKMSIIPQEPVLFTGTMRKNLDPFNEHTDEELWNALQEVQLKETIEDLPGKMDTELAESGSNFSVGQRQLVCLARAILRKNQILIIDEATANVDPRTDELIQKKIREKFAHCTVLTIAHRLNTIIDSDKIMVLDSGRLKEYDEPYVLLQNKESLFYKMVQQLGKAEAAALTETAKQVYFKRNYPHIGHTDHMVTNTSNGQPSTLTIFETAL
Put plainly: MRP4 inhibition (human).

A value given as a limit tells only on which side of the number the result lay.

BSEP (Homo sapiens, UniProt O95342), sequence (O95342 whole entry): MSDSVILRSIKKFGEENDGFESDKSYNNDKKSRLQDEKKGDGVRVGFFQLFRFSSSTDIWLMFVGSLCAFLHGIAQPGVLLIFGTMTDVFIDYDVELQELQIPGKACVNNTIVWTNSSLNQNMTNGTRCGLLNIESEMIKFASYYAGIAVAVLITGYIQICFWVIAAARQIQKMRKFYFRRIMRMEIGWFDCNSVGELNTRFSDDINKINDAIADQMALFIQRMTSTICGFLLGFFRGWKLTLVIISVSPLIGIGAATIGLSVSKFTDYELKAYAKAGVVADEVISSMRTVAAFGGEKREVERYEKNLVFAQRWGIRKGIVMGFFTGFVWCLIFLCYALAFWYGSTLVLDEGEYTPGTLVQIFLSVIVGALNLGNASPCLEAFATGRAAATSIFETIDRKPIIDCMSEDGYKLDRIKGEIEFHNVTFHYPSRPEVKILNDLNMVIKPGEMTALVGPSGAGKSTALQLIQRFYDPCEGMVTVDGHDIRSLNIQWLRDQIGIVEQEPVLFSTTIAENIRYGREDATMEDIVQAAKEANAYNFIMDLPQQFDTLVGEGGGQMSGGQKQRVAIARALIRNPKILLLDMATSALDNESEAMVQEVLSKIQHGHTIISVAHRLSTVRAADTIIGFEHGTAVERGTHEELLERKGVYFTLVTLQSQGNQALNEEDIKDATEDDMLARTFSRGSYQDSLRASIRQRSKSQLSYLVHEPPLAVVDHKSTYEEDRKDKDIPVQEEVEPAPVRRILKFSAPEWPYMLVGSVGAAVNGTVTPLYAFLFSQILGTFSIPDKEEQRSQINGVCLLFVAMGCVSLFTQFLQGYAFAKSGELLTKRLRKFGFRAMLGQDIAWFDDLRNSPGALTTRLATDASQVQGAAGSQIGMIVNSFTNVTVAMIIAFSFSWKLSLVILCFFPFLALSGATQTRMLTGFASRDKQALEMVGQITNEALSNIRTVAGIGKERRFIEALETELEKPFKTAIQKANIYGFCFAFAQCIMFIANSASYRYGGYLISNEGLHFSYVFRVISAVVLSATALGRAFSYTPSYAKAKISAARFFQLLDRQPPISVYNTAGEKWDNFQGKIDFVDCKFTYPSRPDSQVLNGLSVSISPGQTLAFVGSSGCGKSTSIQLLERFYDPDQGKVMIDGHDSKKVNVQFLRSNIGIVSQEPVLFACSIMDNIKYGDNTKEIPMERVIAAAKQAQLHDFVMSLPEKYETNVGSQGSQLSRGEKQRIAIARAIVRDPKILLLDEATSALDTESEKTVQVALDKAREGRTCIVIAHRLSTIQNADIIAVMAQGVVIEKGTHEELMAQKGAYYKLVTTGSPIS
MRP2 (Canis lupus familiaris, UniProt A0A8I3SCV5), sequence (A0A8I3SCV5 1-1544): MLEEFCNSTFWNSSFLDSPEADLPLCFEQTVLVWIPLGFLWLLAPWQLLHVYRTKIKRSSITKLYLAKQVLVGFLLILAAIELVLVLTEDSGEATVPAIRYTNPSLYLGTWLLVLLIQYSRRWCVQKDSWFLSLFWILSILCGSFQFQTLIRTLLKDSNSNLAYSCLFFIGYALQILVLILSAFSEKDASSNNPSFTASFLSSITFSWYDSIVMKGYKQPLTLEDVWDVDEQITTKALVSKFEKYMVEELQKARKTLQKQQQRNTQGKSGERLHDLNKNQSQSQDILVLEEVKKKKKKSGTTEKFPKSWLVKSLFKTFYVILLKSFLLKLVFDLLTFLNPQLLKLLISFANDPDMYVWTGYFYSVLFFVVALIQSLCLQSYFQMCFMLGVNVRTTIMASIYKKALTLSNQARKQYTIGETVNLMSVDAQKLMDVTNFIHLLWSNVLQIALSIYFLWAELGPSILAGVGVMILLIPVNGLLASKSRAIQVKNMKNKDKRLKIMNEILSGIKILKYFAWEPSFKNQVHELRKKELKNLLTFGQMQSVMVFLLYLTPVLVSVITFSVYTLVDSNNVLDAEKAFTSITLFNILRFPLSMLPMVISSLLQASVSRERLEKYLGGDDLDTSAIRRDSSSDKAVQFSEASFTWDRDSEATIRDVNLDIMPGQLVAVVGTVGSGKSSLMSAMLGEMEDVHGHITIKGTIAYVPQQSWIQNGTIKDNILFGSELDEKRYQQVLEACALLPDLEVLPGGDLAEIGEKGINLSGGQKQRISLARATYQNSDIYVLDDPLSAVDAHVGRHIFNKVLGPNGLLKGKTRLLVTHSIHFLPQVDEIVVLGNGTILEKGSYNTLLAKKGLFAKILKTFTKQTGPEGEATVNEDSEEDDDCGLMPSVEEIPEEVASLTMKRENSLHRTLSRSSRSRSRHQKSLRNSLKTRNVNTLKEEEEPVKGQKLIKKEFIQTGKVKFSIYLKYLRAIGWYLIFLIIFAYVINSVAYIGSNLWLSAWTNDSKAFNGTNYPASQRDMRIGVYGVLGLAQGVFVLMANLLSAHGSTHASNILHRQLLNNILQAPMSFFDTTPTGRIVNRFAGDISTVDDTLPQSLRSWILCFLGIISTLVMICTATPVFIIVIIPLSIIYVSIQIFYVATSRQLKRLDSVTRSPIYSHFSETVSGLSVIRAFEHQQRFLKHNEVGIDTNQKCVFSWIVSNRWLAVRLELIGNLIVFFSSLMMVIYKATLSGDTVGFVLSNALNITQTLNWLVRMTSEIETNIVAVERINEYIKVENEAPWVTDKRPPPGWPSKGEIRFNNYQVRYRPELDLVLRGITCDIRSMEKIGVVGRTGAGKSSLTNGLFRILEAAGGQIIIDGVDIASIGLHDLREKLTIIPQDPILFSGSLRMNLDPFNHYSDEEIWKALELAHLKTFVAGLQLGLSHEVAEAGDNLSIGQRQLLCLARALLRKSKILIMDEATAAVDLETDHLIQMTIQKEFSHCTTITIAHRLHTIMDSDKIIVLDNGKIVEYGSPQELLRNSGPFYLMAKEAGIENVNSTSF
MRP2 (Homo sapiens, UniProt Q92887), sequence (Q92887 whole entry): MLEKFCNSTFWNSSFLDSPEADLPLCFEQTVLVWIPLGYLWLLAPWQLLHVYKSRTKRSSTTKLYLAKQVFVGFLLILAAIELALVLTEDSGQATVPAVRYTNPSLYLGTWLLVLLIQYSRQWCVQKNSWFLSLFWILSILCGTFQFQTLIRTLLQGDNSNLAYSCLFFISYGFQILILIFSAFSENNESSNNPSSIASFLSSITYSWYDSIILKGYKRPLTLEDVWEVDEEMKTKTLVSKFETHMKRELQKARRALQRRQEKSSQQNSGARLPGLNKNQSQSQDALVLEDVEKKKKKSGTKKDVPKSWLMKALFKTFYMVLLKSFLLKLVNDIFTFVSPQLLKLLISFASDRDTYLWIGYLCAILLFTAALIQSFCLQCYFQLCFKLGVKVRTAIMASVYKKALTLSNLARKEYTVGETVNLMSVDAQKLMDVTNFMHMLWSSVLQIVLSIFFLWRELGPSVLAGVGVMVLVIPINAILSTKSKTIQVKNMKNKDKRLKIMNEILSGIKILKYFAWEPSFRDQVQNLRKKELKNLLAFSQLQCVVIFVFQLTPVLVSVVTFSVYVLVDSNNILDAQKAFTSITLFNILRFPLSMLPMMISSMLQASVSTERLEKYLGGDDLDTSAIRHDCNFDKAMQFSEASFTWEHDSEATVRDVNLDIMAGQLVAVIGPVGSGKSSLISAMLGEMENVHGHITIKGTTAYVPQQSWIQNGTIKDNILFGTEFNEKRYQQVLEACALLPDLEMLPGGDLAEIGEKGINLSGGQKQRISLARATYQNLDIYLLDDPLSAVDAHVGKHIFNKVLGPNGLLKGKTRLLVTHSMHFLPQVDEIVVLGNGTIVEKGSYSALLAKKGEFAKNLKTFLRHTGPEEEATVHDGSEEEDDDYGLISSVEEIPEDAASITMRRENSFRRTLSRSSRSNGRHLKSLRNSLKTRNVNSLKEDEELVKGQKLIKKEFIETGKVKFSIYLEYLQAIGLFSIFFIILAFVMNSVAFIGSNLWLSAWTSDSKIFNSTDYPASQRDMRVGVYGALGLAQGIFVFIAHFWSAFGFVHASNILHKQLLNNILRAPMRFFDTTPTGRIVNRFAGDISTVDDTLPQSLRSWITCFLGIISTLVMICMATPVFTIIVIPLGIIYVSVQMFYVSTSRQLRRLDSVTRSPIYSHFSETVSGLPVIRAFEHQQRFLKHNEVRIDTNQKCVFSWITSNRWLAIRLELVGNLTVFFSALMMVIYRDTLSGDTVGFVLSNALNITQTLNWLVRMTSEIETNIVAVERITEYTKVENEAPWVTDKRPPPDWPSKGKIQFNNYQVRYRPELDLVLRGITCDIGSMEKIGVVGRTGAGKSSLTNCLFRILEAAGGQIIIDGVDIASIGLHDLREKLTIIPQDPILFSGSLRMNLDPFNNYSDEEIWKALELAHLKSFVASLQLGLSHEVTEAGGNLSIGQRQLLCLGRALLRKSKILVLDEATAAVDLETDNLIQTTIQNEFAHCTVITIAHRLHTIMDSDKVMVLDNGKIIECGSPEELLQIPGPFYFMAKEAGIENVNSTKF

In the case of `C[C@H](NC(=O)Cn1nnc2ccc(O[C@@H]3O[C@H](C(=O)O)[C@@H](O)[C@H](O)[C@H]3O)cc2c1=O)c1ccc(OC(F)(F)F)cc1` [Compound B, (2S,3S,4S,5R,6S)-3,4,5-trihydroxy-6-((4-oxo-3-(2-oxo-2-(((S)-1-(4-(trifluoromethoxy)phenyl)ethyl)amino)ethyl)-3,4-dihydrobenzo[d][1,2,3]triazin-6-yl)oxy)tetrahydro-2H-pyran-2-carboxylic acid], the IC50 (commonly the point on the concentration scale where inhibition reaches its midpoint) against BSEP [1] was above 200 µM; against BSEP [2] it was above 200 µM; against MRP2 [3], 1.8 µM; against MRP2 [4], 83 µM. The BSEP inhibition entry on BSEP [1] (result in words) and on BSEP [2] (result in words) was “not identified” in each case.
As for `C[C@H](NC(=O)Cn1nnc2ccccc2c1=O)c1ccc(OC(F)(F)F)cc1` [Compound A, (S)-2-(4-oxobenzo[d][1,2,3]triazin-3(4H)-yl)-N-(1-(4-(trifluoromethoxy)phenyl)ethyl)acetamide], the IC50 on BSEP [5] was above 200 µM; against BSEP [1] it was 72.3 µM; against BSEP [2] it was above 200 µM; against MRP2 [6] it was above 200 µM; against MRP2 [3], above 200 µM; against MRP2 [4], above 200 µM. Besides, the IC50 against MRP3 and at MRP4 was above 200 µM in each case.
